Test [1] deals with hispidin hydroxylase and luciferase fusion protein. The test is described as follows: Bioluminescence of HEK293T cells expressing hispidin hydroxylase and luciferase fusion protein. It counts as cell-based, Neonothopanus nambi. Conditions: 24 hours after transfection, 1 million of cells in 0.5 ml PBS; hispidin 10 μg per 1 million of cells. The text has this: Humanized DNA sequences coding hispidin-hydroxylase and luciferase of Neonothopanus nambi, obtained according to Example 2, were operatively cross-linked to each other by flexible short peptide linker with amino acid sequence GGSGGSGGS (SEQ ID NOs:115). Nucleotide and amino acid sequences of the obtained fused protein are shown in SEQ ID NO 101 and 102. Nucleic acid coding fused protein was cloned into pEGFP-N1 vector (Clontech, USA) instead of EGFP gene under Cytomegaloviral promoter control. The obtained structure was transfected into HEK293T cells. Analogous vectors, comprising individual genes of hispidin hydroxylase and luciferase, were also co-transfected. Transfection was performed by transfection agent FuGENE HD (Promega, USA) according to the manufacturer's protocol. 24 hours after transfection 1 million of cells were resuspended in 0.5 ml of PBS, and luminescence without adding hispidin and with addition of hispidin (10 μg per 1 million of cells) was recorded by luminometer.

In test [2] the test system is Neonothopanus nambi luciferase. The test is described as follows: Bioluminescence reaction of biosynthetic 3-hydroxyhispidin. To be noted: 3-hydroxyhispidin purified from fermenter medium by HPLC. It counts as biochemical. The text has this: Expression cassette, comprising nucleic acid coding Neonothopanus nambi hispidin hydroxylase (SEQ ID NOs 1, 2) under control of J23100 promoter, was obtained synthetically and cloned into bacterial expression vector comprising spectinomycin resistance gene. The obtained vector was transformed into E. coli cells expressing Neonothopanus nambi hispidin-synthase, Zeocin resistance gene and NpgA gene, obtained according to Example 12. The obtained bacteria were used for producing 3-hydroxyhispidin by fermentation according to the protocol described in Example 12, however with adding of spectinomycin at concentration of […] in all media used for cultivation. After 48 hours of cultivation the 3-hydroxyhispidin concentration in the medium was 2.3 g/l.

The test system of test [3] is Autonomously bioluminescent transgenic plants Nicotiana benthamiana. The test is described as follows: Effect of external adding caffeic acid on transgenic plant bioluminescence. It counts as in vivo. Conditions: 0.4-6.4 g/l, two hours of incubation. The protocol: Autonomously bioluminescent transgenic plants Nicotiana benthamiana, obtained according to Example 16, were transferred to soil and cultured within eight weeks. Then, plant stem was cut and placed in water for two hours, after that, bioluminescence intensity was measured by IVIS Spectrum In Vivo Imaging System (Perkin Elmer). Then, plants were transferred to one of five water solutions at caffeic acid concentration of 0.4 g/l, 0.8 g/l, 1.6 g/l, 3.2 g/l, or 6.4 g/l, and control plants were placed in water. After two more hours of incubation in the caffeic acid solution or in water bioluminescence intensity was measured again.

Test [4] deals with hispidin-synthase of Neonothopanus nambi. As to the kind of experiment: Determination of hispidin synthase functionality. It counts as biochemical. Conditions: 20 μM caffeic acid. The text has this: (§1) Polyhistidine (H is tag) coding sequence was operatively attach ed to 5′-ends of nucleic acids coding hispidin-synthase and caffeylpyruvate hydrolase of Neonothopanus nambi, obtained according to Example 9, and the obtained structures were cloned into pET-23 vector by means of restriction endonucleases NotI and SacI. The vectors were used for transformation of Escherichia coli cells of BL21-DE3-codon+ strain, performed by electroporation. The transformed cells were dispersed in Petri dishes with LB medium, comprising 1.5% of agar, 100 μg/ml of ampicillin, and incubated overnight at 37° C. […]
(§2) For determination of hispidin synthase functionality 30 μl of isolated recombinant protein solution were put into a glass tube, comprising 100 μl of the buffer (0.2 M of Na-phosphate buffer, 0.5 M of Na2SO4, 0.1% dodecylmaltoside (DDM) pH 8.0, all components—Sigma-Aldrich, USA), 0.5 μl of purified recombinant luciferase of Neonothopanus nambi, obtained according to Example 4, 1 mM of NADPH (Sigma-Aldrich, USA), 15 μl of purified recombinant hispidin hydroxylase of Neonothopanus nambi, obtained according to Example 4, 10 mM of ATP (ThermoFisher Scientific, USA), 1 mM of CoA (Sigma-Aldrich, USA), 1 mM of malonyl-CoA (Sigma-Aldrich, USA). […] Maximum emission of the emitted luminescence was 520-535 nm.

Test [5] has as its system caffeylpyruvate hydrolase of Neonothopanus nambi. The test is described as follows: Determination of caffeylpyruvate hydrolase functionality. It counts as biochemical. To be noted: 25 μM caffeoyl pyruvate.
Text: as §1
For determination of caffeylpyruvate hydrolase functionality 10 μl of isolated recombinant protein solution were put into a glass tube, comprising 100 μl of the buffer (0.2 M of Na-phosphate buffer, 0.5 M of Na2SO4, 0.1% dodecylmaltoside (DDM) pH 8.0, 0.5 μl of luciferase of Neonothopanus nambi, 1 mM of NADPH (Sigma-Aldrich, USA), 15 μl of hispidin hydroxylase 10 mM of ATP (ThermoFisher Scientific, USA), 1 mM of CoA (Sigma-Aldrich, USA), 1 mM of malonyl-CoA (Sigma-Aldrich, USA), 30 μl of purified recombinant hispidin synthase. The glass tube was placed into a luminometer GloMax 20/20 (Promega, USA). […] Maximum emission of the emitted luminescence was 520-535 nm.

The test system of test [6] is PKS from Hydrangea macrophylla. The test is described as follows: Functionality of recombinant PKS. It counts as biochemical. Conditions: 20 μM caffeyl-CoA. The protocol: as §2, with “Nucleic acid coding PKS from Hydrangea macrophylla (SEQ ID NOs: 124, 125) was used for producing recombinant protein according to the technique described in Example 4. Presence” for “For determination”, “the expected recombinant product was confirmed by electrophoresis as bands of the expected length were available. Aliquots of the isolated recombinant protein were used for verifying” for “hispidin synthase”, “functionality of:” for “functionality”, “USA). The glass tube was placed into a luminometer GloMax 20/20 (Promega, USA).” for “USA).”

The subject of the next test is Arabidopsis thaliana. As to the kind of experiment: Caffeylpyruvate hydrolase effect on luminescence of autonomously bioluminescent plants. It counts as in vivo. To be noted: on average. The text has this:
For the purpose of study of caffeylpyruvate hydrolase effect on luminescence of autonomously bioluminescent organisms there was used a binary vector for agrobacterium transformation comprising coding sequences of Neonothopanus nambi luciferase, Neonothopanus nambi hispidin hydroxylase, Neonothopanus nambi hispidin synthase, Neonothopanus nambi caffeylpyruvate hydrolase and kanamycin resistance gene, and each gene is under control of 35S promoter from cauliflower mosaic virus, obtained according to Example 16, and control vector characterized in that caffeylpyruvate hydrolase sequence was removed from it. The vectors were used for transformation of Arabidopsis thaliana in the same conditions according to the protocol described in Example 16. Bioluminescence was visualized by means of IVIS Spectrum In Vivo Imaging System (Perkin Elmer). […] The data provided indicate that expression of caffeylpyruvate hydrolase enables to increase bioluminescent cascade efficiency, that results in increasing the intensity of luminescence emitted by plants.

As for `O=c1oc(/C=C/c2ccc(O)c(O)c2)cc(O)c1O` [3-hydroxy hispidin, (E)-6-(3,4-dihydroxystyryl)-3,4-dihydroxy-2H-pyran-2-one], the “cell luminescence on addition” value in test [1] is recorded as “caused bioluminescent signal”. The “activity in bioluminescence reaction” value in test [2] was “active in bioluminescence reaction”.
Take `O=C(O)/C=C/c1ccc(O)c(O)c1` [caffeic acid]: in test [3], the “change of bioluminescence intensity vs before placing in caffeic acid solution” value is “increased”. Moreover, in test [4], the “bioluminescence of reaction mixture” value is “demonstrated bioluminescence”.
Consider `O=C(/C=C/c1ccc(O)c(O)c1)/C=C(/O)C(=O)O` [caffeoyl pyruvate, (2E,5E)-6-(3,4-dihydroxyphenyl)-2-hydroxy-4-oxohexa-2,5-diene acid], for which, in test [5], the “Bioluminescence of the reaction mixture” value was “Bioluminescence of the reaction mixture was detected”.
Take `CC(C)(COP(=O)(O)OP(=O)(O)OC[C@H]1O[C@@H](n2cnc3c(N)ncnc32)[C@H](O)[C@@H]1OP(=O)(O)O)[C@@H](O)C(=O)NCCC(=O)NCCSC(=O)/C=C/c1ccc(O)c(O)c1` [caffeyl-CoA]: the “bioluminescence of reaction mixtures” value in test [6] is recorded as “demonstrated bioluminescence”.

B1: Neonothopanus nambi caffeylpyruvate hydrolase: enzyme converting caffeylpyruvate to caffeic acid, expressed in transgenic plants (protein, listed as Neonothopanus nambi)
chain: MAPISSTWSRLIRFVAIETSLVHIGEPIDATMDVGLARREGKTIQAYEIIGSGSALDLSAQVSKNVLTVRELLMPLSREEIKTVRCLGLNYPVHATEANVAVPKFPNLFYKPVTSLIGPDGLITIPSVVQPPKEHQSDYEAELVIVIGKAAKNVSEDEALDYVLGYTAANDISFRKHQLAVSQWSFSKGFGSLLLTIRMAQTHSGNINRFSRDQIFNVKKTISFLSQGTTLEPGSIILTGTPDGVGFVRNPPLYLKDGDEVMTWIGSGIGTLANTVQEEKTCFASGGHE
For B1, the “brightness of bioluminescence vs plants expressing only luciferase, hispidin hydroxylase and hispidin synthase” value in the test with Arabidopsis thaliana stood at 8.3 times.
